In EP3067058A1, “BIOLOGICAL COMPOSITION BASED ON ENGINEERED LACTOBACILLUS PARACASEI SUBSP. PARACASEI F19 FOR THE BIOSYNTHESIS OF CANNABINOIDS” (Farmagens Health Care Srl, priority 2015, dated 2016):

How the values were obtained:
Caco-2 cells = test: MTT proliferation assay in human colon carcinoma cells; assay type: cell-based; conditions: 96 hrs incubation; 10^11 cfu; caproic acid 0.003-0.3µg/ml
Procedure: To confirm the chemo-preventive action of cannabidiol in the experimental conditions, a study on the putative pro-apoptotic and anticancer activity exerted by LP OAC-CAS-OLS-CsPT1+ probiotic was tested in vitro in human colon carcinoma cells. CBD release in human colon carcinoma cell line was measured at the different time points.
Caco-2 cell colture. Caco-2 cells were cultured in Dulbecco's Modified Eagle's Medium (DMEM) supplemented with 5% Foetal Bovine Serum (FBS), 2 mM glutamine, 100 U/mL penicillin, 100 µg/mL streptomycin at 37 °C in 5% CO2/95% air. At confluence cells were washed three times with Phosphate Buffer Saline (PBS), detached with tripsyn/EDTA, plated in 10 cm diameter Petri dishes and left to adhere for 24 hrs. […]
MTT Proliferation and survival assays. Cell proliferation was evaluated by 3-[4,5-dimethylthiazol-2-yl]-2,5 diphenyltetrazolium bromide (MTT) assay. […] After this time point, the cells were lysed and the dark blue crystals solubilized with 125 µl of a solution containing 50% (N,N-dimethylformamide, 20% (w/v) sodium dodecylsulphate (pH 4.5). The optical density (OD) of each well was measured with a Perkin-Elmer (Waltham, MA, USA) microplate spectrophotometer equipped with a 620 nm filter. Cell viability in response to pentamidine was calculated as % cell viability (OD treated/OC control) X 100.

Bax = test: Immunoblot of pro-apoptotic Bax protein in Caco-2 cells; assay type: cell-based, human; conditions: 96 hrs incubation; 10^11 cfu; caproic acid 0.003-0.3µg/ml
Procedure: Caco-2 cell colture. Caco-2 cells were cultured in Dulbecco's Modified Eagle's Medium (DMEM) supplemented with 5% Foetal Bovine Serum (FBS), 2 mM glutamine, 100 U/mL penicillin, 100 µg/mL streptomycin at 37 °C in 5% CO2/95% air. At confluence cells were washed three times with Phosphate Buffer Saline (PBS), detached with tripsyn/EDTA, plated in 10 cm diameter Petri dishes and left to adhere for 24 hrs. Thereafter, DMEM was replaced with fresh medium and cells were treated for 96 hrs with 10^11 cfu LP OAC-CAS-OLS-CsPT1^+, with caproic acid 0.003-0.3µg/ml or LP empty vector with caproic acid 0.003-0.3µg/ml.
The pro-apoptotic effect in Caco-2 cell cultured in the presence of LP OAC-CAS-OLS-CsPT1+ or LP empty vector was tested by immunoblot analysis of pro-apoptotic proteins level (Bax), as well as by rate of cells proliferation (MTT).
Immunoblot of Bax protein. Briefly, after homogenization in ice-cold hypotonic lysis buffer, protein concentration was determined using Bio-Rad protein assay kit (Bio-Rad, Milan, Italy). Analysis of Bax and β-actin protein expression was performed on total protein fractions of homogenates. Equivalent amounts (30 µg) of each homogenate underwent electrophoresis through a polyacrilamide minigel. […] Protein bands were then scanned and densitometrically analyzed with a GS-700 imaging densitometer.

[1] = smoking; cited from earlier work

SMILES: CCCCCC(=O)O [caproic acid]
- cell proliferation (MTT) (Caco-2 cells): no significant effect
- expression level of the pro-apoptotic protein Bax-2 (Bax): no significant effect

SMILES: CCCCCc1cc(O)c2c(c1)OC(C)(C)[C@@H]1CCC(C)=C[C@@H]21 [Δ^9-THC, (-)-trans-Δ9-tetrahydrocannabinol]
- Δ^9-THC content in a cannabis cigarette that is absorbed [1]: about 20%
